{"source": "ChEMBL document CHEMBL2413072", "about": "“Synthesis and in vitro anticancer studies of novel C-2 arylidene congeners of lantadenes” (2013)", "type_in_all_cases": "functional", "key": {"SW-620": {"test_system": "SW-620", "assay": "Growth inhibition of human SW620 cells by sulforhodamine B assay"}, "HT-29": {"test_system": "HT-29", "assay": "Growth inhibition of human HT-29 cells by sulforhodamine B assay"}, "NCI-H322M": {"test_system": "NCI-H322M", "assay": "Growth inhibition of human NCI-H322M cells by sulforhodamine B assay"}, "MDA-MB-435": {"test_system": "MDA-MB-435", "assay": "Growth inhibition of human MDA-MB-435 cells assessed as cell growth at 10^-8 M by sulforhodamine B assay", "conditions": "read-out: Activity"}, "M14": {"test_system": "M14", "assay": "Growth inhibition of human M14 cells assessed as cell growth at 10^-8 M by sulforhodamine B assay", "conditions": "read-out: Activity"}, "LOX IMVI": {"test_system": "LOX IMVI", "assay": "Growth inhibition of human LOXIMVI cells assessed as cell growth at 10^-8 M by sulforhodamine B assay", "conditions": "read-out: Activity"}, "KM12": {"test_system": "KM12", "assay": "Growth inhibition of human KM12 cells assessed as cell growth at 10^-8 M by sulforhodamine B assay", "conditions": "read-out: Activity"}, "HOP-92": {"test_system": "HOP-92", "assay": "Growth inhibition of human HOP92 cells assessed as cell growth at 10^-8 M by sulforhodamine B assay", "conditions": "read-out: Activity"}, "MDA-MB-468": {"test_system": "MDA-MB-468", "assay": "Growth inhibition of human MDA-MB-468 cells by sulforhodamine B assay"}, "BT-549": {"test_system": "BT-549", "assay": "Growth inhibition of human BT549 cells by sulforhodamine B assay"}, "CAKI-1": {"test_system": "CAKI-1", "assay": "Growth inhibition of human CAKI-1 cells by sulforhodamine B assay"}, "ACHN": {"test_system": "ACHN", "assay": "Growth inhibition of human ACHN cells by sulforhodamine B assay"}, "[1]": {"conditions": "read-out: LC50 (the source's name)"}, "[2]": {"conditions": "read-out: pLC50 (the source's name) (converted)"}}}
{"compound": "CC(C)=CC(=O)O[C@@H]1CC(C)(C)C[C@H]2C3=CC[C@@H]4[C@@]5(C)CC[C@H](O)C(C)(C)[C@@H]5CC[C@@]4(C)[C@]3(C)CC[C@@]12C(=O)O", "note": "[Reduced Lantadene B]", "values": [{"measurement": "GI50", "setting": "SW-620; read-out: GI50", "value": 5.69, "unit": "µM"}, {"measurement": "CC50", "setting": "SW-620; [1]", "value": "> 100", "unit": "µM"}, {"measurement": "TGI", "setting": "SW-620; read-out: TGI", "value": 52.6, "unit": "µM"}, {"measurement": "GI50", "setting": "SW-620; read-out: pGI50 (converted)", "value": 5.75, "unit": "µM"}, {"measurement": "CC50", "setting": "SW-620; [2]", "value": "> 100", "unit": "µM"}, {"measurement": "TGI", "setting": "SW-620; read-out: pTGI (converted)", "value": 52.5, "unit": "µM"}, {"measurement": "GI50", "setting": "HT-29; read-out: GI50", "value": 4.24, "unit": "µM"}, {"measurement": "LC50 (50% cell kill)", "setting": "HT-29; read-out: LC50", "value": "> 100", "unit": "µM"}, {"measurement": "TGI", "setting": "HT-29; read-out: TGI", "value": 27.1, "unit": "µM"}, {"measurement": "GI50", "setting": "HT-29; read-out: pGI50 (converted)", "value": 4.27, "unit": "µM"}, {"measurement": "LC50 (50% cell kill)", "setting": "HT-29; read-out: pLC50 (converted)", "value": "> 100", "unit": "µM"}, {"measurement": "TGI", "setting": "HT-29; read-out: pTGI (converted)", "value": 26.9, "unit": "µM"}, {"measurement": "GI50", "setting": "NCI-H322M; read-out: GI50", "value": 3.62, "unit": "µM"}, {"measurement": "LC50 (50% lethal concentration)", "setting": "NCI-H322M; read-out: LC50", "value": 58, "unit": "µM"}, {"measurement": "TGI", "setting": "NCI-H322M; read-out: TGI", "value": 15, "unit": "µM"}, {"measurement": "GI50", "setting": "NCI-H322M; read-out: pGI50 (converted)", "value": 3.63, "unit": "µM"}, {"measurement": "LC50 (50% lethal concentration)", "setting": "NCI-H322M; read-out: pLC50 (converted)", "value": 57.5, "unit": "µM"}, {"measurement": "TGI", "setting": "NCI-H322M; read-out: pTGI (converted)", "value": 15.1, "unit": "µM"}, {"measurement": "growth at 0.01 µM", "setting": "MDA-MB-435", "value": 100, "unit": "%"}, {"measurement": "growth at 0.01 µM", "setting": "M14", "value": 94, "unit": "%"}, {"measurement": "growth at 0.01 µM", "setting": "LOX IMVI", "value": 98, "unit": "%"}, {"measurement": "growth at 0.01 µM", "setting": "KM12", "value": 100, "unit": "%"}, {"measurement": "growth at 0.01 µM", "setting": "HOP-92", "value": 91, "unit": "%"}, {"measurement": "GI50", "setting": "MDA-MB-468; read-out: GI50", "value": 4.17, "unit": "µM"}, {"measurement": "CC50", "setting": "MDA-MB-468; [1]", "value": 57.1, "unit": "µM"}, {"measurement": "TGI", "setting": "MDA-MB-468; read-out: TGI", "value": 20.2, "unit": "µM"}, {"measurement": "GI50", "setting": "MDA-MB-468; read-out: pGI50 (converted)", "value": 4.17, "unit": "µM"}, {"measurement": "CC50", "setting": "MDA-MB-468; [2]", "value": 57.5, "unit": "µM"}, {"measurement": "TGI", "setting": "MDA-MB-468; read-out: pTGI (converted)", "value": 20, "unit": "µM"}, {"measurement": "GI50", "setting": "BT-549; read-out: GI50", "value": 6.61, "unit": "µM"}, {"measurement": "CC50", "setting": "BT-549; [1]", "value": 72.1, "unit": "µM"}, {"measurement": "TGI", "setting": "BT-549; read-out: TGI", "value": 24.2, "unit": "µM"}, {"measurement": "GI50", "setting": "BT-549; read-out: pGI50 (converted)", "value": 6.61, "unit": "µM"}, {"measurement": "CC50", "setting": "BT-549; [2]", "value": 72.4, "unit": "µM"}, {"measurement": "TGI", "setting": "BT-549; read-out: pTGI (converted)", "value": 24, "unit": "µM"}, {"measurement": "GI50", "setting": "CAKI-1; read-out: GI50", "value": 3.39, "unit": "µM"}, {"measurement": "CC50", "setting": "CAKI-1; [1]", "value": "> 100", "unit": "µM"}, {"measurement": "TGI", "setting": "CAKI-1; read-out: TGI", "value": 46.8, "unit": "µM"}, {"measurement": "GI50", "setting": "CAKI-1; read-out: pGI50 (converted)", "value": 3.39, "unit": "µM"}, {"measurement": "CC50", "setting": "CAKI-1; [2]", "value": "> 100", "unit": "µM"}, {"measurement": "TGI", "setting": "CAKI-1; read-out: pTGI (converted)", "value": 46.8, "unit": "µM"}, {"measurement": "GI50", "setting": "ACHN; read-out: GI50", "value": 2.93, "unit": "µM"}, {"measurement": "CC50", "setting": "ACHN; [1]", "value": 58.5, "unit": "µM"}, {"measurement": "TGI", "setting": "ACHN; read-out: TGI", "value": 20.4, "unit": "µM"}]}
